Laboratory results published in article PMC9102668, “Highly Cytotoxic Osmium(II) Compounds and Their Ruthenium(II) Analogues Targeting Ovarian Carcinoma Cell Lines and Evading Cisplatin Resistance Mechanisms” (International Journal of Molecular Sciences, 2022).

Key:
Format in all cases: cell-based
A2780 = experiment: MTT assay (CellTiter96), cytotoxic activity; conditions: 48 h incubation
Experimental: (§1) The biological behaviour of all substances was characterized by their cytotoxic activity against a panel of cell lines enabling an understanding of the structure-activity relationship. Cytotoxic activity was determined on ovarian carcinoma cell lines SKOV3 and A2780 as well as their Cisplatin resistant analogues (SKOV3cis and A2780cis) and the lung carcinoma cell line A549. Due to a low solubility in water, dmso is used as a solvent for the preparation of a dilution series in cell culture experiments. The toxic influence of dmso was determined earlier and experiments were carried out with 0.5% dmso in cell culture media and this concentration was used as reference sample in each MTT assay (details: Section 3). […] Resistance factors (RF) were determined for all substances (for IC50 values and RF of β-Hydroxydithiocinnamic acid esters L1–L18, see Tables S2 and S3, Supplementary part). All investigated ruthenium(II) compounds show lower RF values than Cisplatin on ovarian carcinoma cell lines, ranging from 0.2 to 1.5 (Table 3). Whereas the IC50 values on the non-resistant cell lines are in most cases higher than the IC50 of the reference substance, no increase of IC50 values is observed for the resistant cell lines. Contrary, eight ruthenium complexes show lower IC50 values on SKOV3cis than Cisplatin and four compounds on A2780cis. Thus, it can be concluded that these compounds are able to bypass the Cisplatin resistance mechanism in these cell lines pointing to a different mechanism of action.
(§2) Ovarian cancer cell lines were cultured under standard conditions (5% CO2, 37 °C, 90% humidity) in RPMI medium supplemented with 10% FCS, 100 U/mL penicillin and 100 µg/mL streptomycin (Life Technologies, Dreieich, Germany). Cisplatin (Sigma, Taufkirchen, Germany) was freshly dissolved at 1 mg/mL in 0.9% NaCl solution and diluted appropriately. New ruthenium(II) complexes and ligands were dissolved in dmso. Platinum-resistant A2780 and SKOV3 cells were established by repeated rounds of 3-day incubations with increasing amounts of Cisplatin starting with 0.1 µM. The concentration was doubled after 3 incubations, interrupted by recovery phases with normal medium. […] Determinations of IC50 values were carried out using the CellTiter96 non-radioactive proliferation assay (MTT assay, Promega, Mannheim, Germany). After seeding 5000 cells per well in a 96-well plate, cells were allowed to attach for 24 h and were incubated for 48 h with different concentrations of the substances ranging from 0 to 500 µM for Ruthenium and 0 to 1000 µM for ligand tests (0, 1, 10, 50, 100, 500, 1000 µm), for Cisplatin from 0 to 100 µM (0.1, 1, 5, 10, 50, 100 µM). Each measurement was done in triplicate and repeated 3 times. The proportion of viable cells was quantified by the MTT assay and after background subtraction relative values compared to the mean of medium controls were calculated. Non-linear regression analyses applying the Hill slope were run in GraphPad 5.0 software.

SKOV3cis = experiment: MTT assay (CellTiter96), cytotoxic activity; conditions: for IC50: Cisplatin resistant SKOV3, MTT assay, 48 h incubation; for RF SKOV3 (resistance factor): SKOV3cis vs SKOV3
Experimental: as §1, §2

A549 = experiment: MTT assay (CellTiter96), cytotoxic activity; conditions: lung carcinoma cell line, 48 h incubation
Experimental: as §1, §2

SKOV3 = experiment: MTT assay (CellTiter96), cytotoxic activity; conditions: 48 h incubation
Experimental: as §1, §2

A2780cis = experiment: MTT assay (CellTiter96), cytotoxic activity; conditions: for RF A2780 (resistance factor): A2780cis vs A2780; for IC50: Cisplatin resistant A2780, MTT assay, 48 h incubation
Experimental: as §1, §2

[1] = system: Cisplatin resistant cell lines; experiment: Mean IC50 (MTT assay) on Cisplatin resistant cell lines
Experimental: Thus, it can be concluded that the biological activity is mediated by a longer chain (butoxy) at the meta-position, whereas the ortho- and para-positions are more suitable with a shorter chain (ethoxy). To have a further look at the influence of the different ligand systems and substitution patterns, all β-Hydroxydithiocinnamic acid alkyl esters were tested under same conditions as their derived ruthenium(II) complexes (Figure 5B, Supplementary Table S3). […] All ligands are less cytotoxic than Cisplatin itself and therefore the metal(II) center is necessary for the high cytotoxic activity, what is in clear contrast to the literature for O,S-chelating ruthenium(II) or osmium(II) compounds with thiomaltol ligand [48, 71] but confirmed for Ru(II)/Os(II) compounds with N,N-bidentate glycosyl heterocyclic ligands. This is exemplarily shown by the comparison of mean IC50 values for Cisplatin, L14, and Ru14 (Supplementary Figure S8).
as §2

Molecule	IC50 (A2780)	IC50 (SKOV3cis)	RF SKOV3 (resistance factor) (SKOV3cis)	IC50 (A549)	IC50 (SKOV3)	RF A2780 (resistance factor) (A2780cis)	IC50 (A2780cis)	mean IC50 value on Cisplatin resistant cell lines compared with Cisplatin [1]
CCSC(=S)C=C([O][Ru][Cl])c1ccccc1.Cc1ccc(C(C)C)cc1 [Ru2, [(η^6-p-cymene)Ru(1-phenyl-3-(ethylthio)-3-thioxo-prop-1-en-1-olate-O,S)Cl]]	10 µM	11.1 µM	0.7	12.2 µM	15.7 µM	0.48	4.8 µM	lower
CSC(=S)C=C([O][Ru][Cl])c1ccc(O)cc1.Cc1ccc(C(C)C)cc1 [Ru4, [(η^6-p-cymene)Ru(1-(4-hydroxyphenyl)-3-(methylthio)-3-thioxo-prop-1-en-1-olate-O,S)Cl]]	21.4 µM	27.9 µM	1.3	26.3 µM	21.8 µM	1	21.4 µM	
CCSC(=S)C=C([O][Ru][Cl])c1cccc(O)c1.Cc1ccc(C(C)C)cc1 [Ru5, [(η^6-p-cymene)Ru(1-(3-hydroxyphenyl)-3-(ethylthio)-3-thioxo-prop-1-en-1-olate-O,S)Cl]]	44.9 µM	9.3 µM	0.6	11.5 µM	15.4 µM	0.2	8.1 µM	lower
CCSC(=S)C=C([O][Ru][Cl])c1ccc(O)cc1.Cc1ccc(C(C)C)cc1 [Ru6, [(η^6-p-cymene)Ru(1-(4-hydroxyphenyl)-3-(ethylthio)-3-thioxo-prop-1-en-1-olate-O,S)Cl]]	15.4 µM	22.6 µM	0.8	48.5 µM	28.6 µM	1	15.3 µM	
[(η^6-p-cymene)Os(1-(2-ethoxyphenyl)-3-(methylthio)-3-thioxo-prop-1-en-1-olate-O,S)] [Os13]	0.3 µM	7.1 µM	1.7	3.1 µM	4.1 µM	2.7	0.8 µM	
[(η^6-p-cymene)Os(1-(2-methoxyphenyl)-3-(methylthio)-3-thioxo-prop-1-en-1-olate-O,S)] [Os7]	0.4 µM	0.6 µM	0.1	6.2 µM	8.8 µM	5.3	2.1 µM	
[(η^6-p-cymene)Os(1-(3-ethoxyphenyl)-3-(methylthio)-3-thioxo-prop-1-en-1-olate-O,S)] [Os14]	0.3 µM	12.1 µM	1.2	5.5 µM	10.4 µM	4.3	1.3 µM	
[(η^6-p-cymene)Ru(1-(2-ethoxyphenyl)-3-(methylthio)-3-thioxo-prop-1-en-1-olate-O,S)] [Ru13]	2.6 µM	17.4 µM	1	28.4 µM	16.9 µM	1.8	4.8 µM	
[(η^6-p-cymene)Ru(1-(2-methoxyphenyl)-3-(ethylthio)-3-thioxo-prop-1-en-1-olate-O,S)] [Ru10]	14.6 µM	17.7 µM	0.6	27.7 µM	27.7 µM	0.8	11.7 µM	
[(η^6-p-cymene)Ru(1-(2-methoxyphenyl)-3-(methylthio)-3-thioxo-prop-1-en-1-olate-O,S)] [Ru7]	16.4 µM	17.8 µM	0.8	15.3 µM	22.4 µM	0.9	15 µM	
[(η^6-p-cymene)Ru(1-(3-butoxyphenyl)-3-(methylthio)-3-thioxo-prop-1-en-1-olate-O,S)] [Ru16]	5.4 µM	13.2 µM	1	4.9 µM	13.2 µM	1.3	6.8 µM	
[(η^6-p-cymene)Ru(1-(3-methoxyphenyl)-3-(ethylthio)-3-thioxo-prop-1-en-1-olate-O,S)] [Ru11]	15.6 µM	16.8 µM	1	19 µM	17 µM	0.8	11.8 µM	
[(η^6-p-cymene)Ru(1-(3-methoxyphenyl)-3-(methylthio)-3-thioxo-prop-1-en-1-olate-O,S)] [Ru8]	14.3 µM	20.3 µM	1	13.7 µM	21.3 µM	1.2	16.8 µM	
[(η^6-p-cymene)Ru(1-(4-butoxyphenyl)-3-(methylthio)-3-thioxo-prop-1-en-1-olate-O,S)] [Ru17]	14.2 µM	17.5 µM	1	15.1 µM	17.2 µM	0.7	9.8 µM	
[(η^6-p-cymene)Ru(1-(4-ethoxyphenyl)-3-(methylthio)-3-thioxo-prop-1-en-1-olate-O,S)] [Ru15]	5.8 µM	3.7 µM	0.5	16.5 µM	7.4 µM	0.8	4.4 µM	lower
[(η^6-p-cymene)Ru(1-(4-methoxyphenyl)-3-(ethylthio)-3-thioxo-prop-1-en-1-olate-O,S)] [Ru12]	11 µM	12.7 µM	0.5	6.9 µM	24 µM	0.9	10.1 µM	
[(η^6-p-cymene)Ru(1-(4-methoxyphenyl)-3-(methylthio)-3-thioxo-prop-1-en-1-olate-O,S)] [Ru9]	24.2 µM	12.5 µM	0.5	39.6 µM	25.3 µM	0.7	16.4 µM	
